In patent US20180250221A1, “GARDENIA EXTRACT FOR COLOURING THE SKIN” (PIERRE FABRE MEDICAMENT, priority 2015, published 2018) one finds colouring strength data, which are given here for one compound.

Molecules are shown by their SMILES.

In this assay the test system is human skin explants. In words: Colouring effect on human skin explants under survival conditions (ex vivo model). The following applies: 72 hours, C-Cube Dermoscope colorimetric differences, four donors. Format: cell-based. The method, then: Owing to the lack of cell and animal pharmacological models, the inventors developed an ex vivo model in order to overcome the difficulties related to absorption of the active agents. Indeed, there is no absorption of crocin without intestinal hydrolysis first and low assimilation of crocetin and of these derivatives after passage.
The objective of this study was to evaluate the colouring effect of various extracts applied to human skin explants under survival conditions over 72 hours. Maintenance under survival conditions is carried out in 6-well culture plates containing culture medium. These culture plates are placed in an incubator at 37° C. with 5% CO2. The studies were carried out on four donors.
The colouring of each medium containing active agents or control is evaluated with the C-Cube Dermoscope (Clinical Edition) from Pixience SAS. The evaluation concerns the maximum colouring which can be obtained, i.e., the 100% level on the colour mapping scale relating to each active agent. The colouring of each explant is measured using the C-Cube Dermoscope (Clinical Edition). First, the explant is placed in a solution of medium with no active agent in order to rinse the explant of the active agent molecules present on the explant surface and which have not penetrated the skin. […]

As to `CC(/C=C/C=C(\C)C(=O)O)=C\C=C\C=C(C)\C=C\C=C(/C)C(=O)O` [crocetin], the colouring strength result is “high colouring strength”.
